Measurements published in US20220380310A1, “P2X7R ANTAGONISTS” (priority 2019, published 2022).

Columns and labels:
[1] = target: T1, P2X7R (Homo sapiens, UniProt Q99572); assay: Yo-Pro-1 uptake assay (Yo-Pro-1 Assay) in HEK-293 cells transiently transfected with P2X7R; assay type: cell-based; conditions: for remaining activity at 5 µM: HEK293, read-out: Percentage of activity remains in the presence of the compound at 5 μM, P2X7R (Yo-Pro-1 Assay); for IC50: HEK-293 cells transiently transfected with P2X7R, 30 μM bzATP as stimulus, readings 1 hour after stimulation, estimated from dose-response curves
T1 construct: expressed in transfected cells; host or cells: HEK-293
T1 sequence (Q99572 1-595): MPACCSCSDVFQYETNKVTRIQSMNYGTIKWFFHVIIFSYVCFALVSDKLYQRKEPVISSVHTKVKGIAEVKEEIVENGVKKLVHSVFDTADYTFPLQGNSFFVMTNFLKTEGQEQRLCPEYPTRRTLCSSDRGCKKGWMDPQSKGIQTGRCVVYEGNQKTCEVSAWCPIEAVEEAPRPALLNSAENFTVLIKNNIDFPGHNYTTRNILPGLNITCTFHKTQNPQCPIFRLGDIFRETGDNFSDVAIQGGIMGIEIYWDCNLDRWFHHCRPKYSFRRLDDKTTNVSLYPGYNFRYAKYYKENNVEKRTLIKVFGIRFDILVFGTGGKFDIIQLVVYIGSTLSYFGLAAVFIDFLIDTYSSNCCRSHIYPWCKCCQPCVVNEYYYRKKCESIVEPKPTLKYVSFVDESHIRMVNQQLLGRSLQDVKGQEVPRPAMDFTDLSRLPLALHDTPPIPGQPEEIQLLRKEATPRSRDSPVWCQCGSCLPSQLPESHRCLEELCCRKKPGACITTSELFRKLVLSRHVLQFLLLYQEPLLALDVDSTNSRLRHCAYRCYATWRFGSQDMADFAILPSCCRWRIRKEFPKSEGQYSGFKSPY
Excerpt: (§1) Yo-Pro-1 Iodide (Cat. No Y3603 from Fisher Scientific) is a fluorescent DNA-binding dye with a MW of 629 Da. This method is based upon the Yo-Pro-1 entrance to cells through the dilated or “large pore form” of P2X7R and its binding to intracellular DNA whereby it increases its fluorescence intensity (J. Pharmacol. Exp. Ther. 308, 1053-1061). The dye has an absorption spectrum compatible with excitation at 488 nm by argon laser sources and its emission wavelength is in the range of 515-575 nm. This Yo-Pro-1 uptake was measured in HEK-293 cells transiently transfected with P2X7R (J. Biol. Chem. 290, 7930-7942). In Brief, HEK-293 cells were seeded in growth medium at approximately 20,000 cells/well in a 96-well plate on day 1. Transfection was performed on day 2 using Lipofectamine 2000 with the P2X7R DNA plasmid at the concentration of 1.7 μg/ml. The transfection solution was replaced with the growth medium 4 hours later. Fluorescent assays were conducted on day 4. On day 4, the medium was removed, the cells were washed with phosphate buffered saline (PBS) (Cat. No. MT21040CV from Fisher Scientific). Then, 25 μl of PBS were first loaded to each well followed by 25 μl of various test compounds. The third 25 μl of solution contained a mixture of Yo-Pro-1 and stimulus bzATP (2′(3′)-O-(4-Benzoylbenzoyl)adenosine-5′-triphosphate tri(triethylammonium) salt). The final concentration of Yo-Pro-1 was 2.5 μM and of bzATP 30 μM. Fluorescence increases were measured every 30 minutes in a microplate device with excitation at 475 nm and emission wavelength in the range of 500-550 nm. PPADS (Pyridoxalphosphate-6-azophenyl-2′,4′-disulfonic acid tetrasodium) was used as the positive control. The wells with no test compounds added nor bzATP and only containing PBS and Yo-Pro-1 were served as the negative control (N Contl). The positive control (P Contl) wells were the same as N Contl but contained the stimulus, bzATP in this case.
(§2) Data used for analysis were from microplate readings 1 hour after bzATP stimulation. The result of each well was first normalized by its corresponding base microplate reading. The base microplate reading was the first reading right after all components were added. Then, the negative control signal was subtracted from. In the negative control, the test compound and the stimulus were replaced by PBS. An average of six highest values of the plate (AVG) were considered as 100% and the value of each well was divided by AVG and presented as the relative values in percentages.
For comparison of the antagonistic effectiveness of the compounds of this invention among P2X receptors, assays were conducted at 5 μM. Among 55 compounds tested, 29 can reduce the P2X7R activity to […] of the normal activity (Table 2).

[2] = target: T2, Human P2X2 receptor (P2X2R) (Homo sapiens, UniProt Q9UBL9); assay: Yo-Pro-1 uptake assay, P2X2R transfected HEK-293 cells; assay type: cell-based; conditions: 5 μM ATP stimulus; for remaining activity at 5 µM: HEK293, compound at 5 μM, read-out: Percentage of activity remains in the presence of the compound at 5 μM, P2X2R (Yo-Pro-1 Assay)
T2 construct: expressed in transfected cells; host or cells: HEK-293
T2 sequence (Q9UBL9 1-471): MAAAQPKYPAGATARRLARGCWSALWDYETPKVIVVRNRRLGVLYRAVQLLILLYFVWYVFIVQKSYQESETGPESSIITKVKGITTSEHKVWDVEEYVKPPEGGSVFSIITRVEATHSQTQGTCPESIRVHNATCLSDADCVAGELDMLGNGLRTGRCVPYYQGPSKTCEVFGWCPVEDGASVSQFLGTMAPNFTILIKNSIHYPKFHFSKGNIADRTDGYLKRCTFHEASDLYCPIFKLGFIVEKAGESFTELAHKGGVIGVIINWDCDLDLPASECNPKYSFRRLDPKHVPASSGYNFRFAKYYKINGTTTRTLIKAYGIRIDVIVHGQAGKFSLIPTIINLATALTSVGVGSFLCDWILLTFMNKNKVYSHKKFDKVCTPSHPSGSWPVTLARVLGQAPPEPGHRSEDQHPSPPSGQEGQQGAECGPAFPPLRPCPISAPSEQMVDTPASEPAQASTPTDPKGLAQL
Excerpt: as §1, §2
Human P2X2 receptor (P2X2R) construct (J. Biol. Chem. 290, 7930-7942) was transiently transfected to HEK-293 cells and the Yo-Pro-1 assay was performed as described above. When 5 μM ATP was used as the stimulus, the elevation of receptor mediated activity can be seen in 10 minutes.

[3] = compound at 5 μM, 30 μM bzATP stimulus, reading 1 hour after stimulation, transfected HEK-293 cells

Row | Compound | remaining activity at 5 µM [1, 3] [%] | IC50 [1] [µM] | remaining activity at 5 µM [2] [%] | Percentage of activity remains in the presence of the compound at 5 μM, P2X7R (Yo-Pro-1 Assay) [1, 3] [%] | Percentage of activity remains in the presence of the compound at 5 μM, P2X2R (Yo-Pro-1 Assay) [2] [%]
1 | CC(C)(C)OC(=O)N1CCN(c2ccc(S(=O)(=O)N3CCN(C(=O)CCc4ccccc4)CC3)cc2)CC1 [#31] | 12.9 | 3 | 64 | – | –
2 | O=C(CCc1ccccc1)N1CCN(S(=O)(=O)c2ccc(N3CCOCC3)cc2)CC1 [#32] | 54.3 | 3.8 | 79.9 | – | –
3 | O=C(CCc1ccccc1)N1CCN(S(=O)(=O)c2ccc(NC3CCCCC3)cc2)CC1 [#33] | -8.5 | 0.4 | 60.9 | – | –
4 | O=C(CCc1ccccc1)N1CCN(S(=O)(=O)c2ccc(N3CCCCC3)cc2)CC1 [#34] | 4.8 | 2.7 | 72.4 | – | –
5 | O=C(CCc1ccccc1)N1CCN(S(=O)(=O)c2ccc(N3CCCC3)cc2)CC1 [#35] | 23.6 | 3.3 | 70.6 | – | –
6 | CC(C)(C)OC(=O)N1CCN(c2ccc(S(=O)(=O)N3CCCC(C(=O)NCCc4ccccc4)C3)cc2)CC1 (centres unmarked) [#36] | 47.3 | 11.5 | 61.8 | – | –
7 | CCOc1ccc(S(=O)(=O)N2CCCC(NC(=O)CCc3ccccc3)C2)cc1 (centres unmarked) [#37] | 82.7 | 28.5 | 58.1 | – | –
8 | O=C(CCc1ccccc1)NC1CCCN(S(=O)(=O)c2ccc(N3CCC(Oc4ccccc4)CC3)cc2)C1 (centres unmarked) [#38] | 7.5 | 0.9 | 57.6 | – | –
9 | CC(C)OC1CCN(c2ccc(S(=O)(=O)N3CCCC(NC(=O)CCc4ccccc4)C3)cc2)CC1 (centres unmarked) [#39] | 11.1 | 3.9 | 66.3 | – | –
10 | CC1CCN(c2ccc(S(=O)(=O)N3CCCC(NC(=O)CCc4ccccc4)C3)cc2)CC1 (centres unmarked) [#40] | 9.1 | 0.8 | 69.1 | – | –
11 | CC(C)(C)OC(=O)N1CCC(C2CCN(c3ccc(S(=O)(=O)N4CCCC(NC(=O)CCc5ccccc5)C4)cc3)CC2)CC1 (centres unmarked) [#41] | 18.3 | 1.8 | 61.4 | – | –
12 | O=C(CCc1ccccc1)NC1CCCN(S(=O)(=O)c2ccc(N3CCC(C(F)(F)F)CC3)cc2)C1 (centres unmarked) [#42] | -1.7 | 0.9 | 59.2 | – | –
13 | O=C(CCc1ccccc1)NC1CCCN(S(=O)(=O)c2ccc(F)c(Cl)c2)C1 (centres unmarked) [#43] | 23.5 | 3 | 71.1 | – | –
14 | CC1CCCN(c2ccc(S(=O)(=O)N3CCCC(NC(=O)CCc4ccccc4)C3)cc2)C1 (centres unmarked) [#44] | -5.1 | 0.1 | 61.4 | – | –
15 | O=C(CCc1ccccc1)NC1CCCN(S(=O)(=O)c2ccc(N3CCCCC3)c(Cl)c2)C1 (centres unmarked) [#45] | 33.1 | 9.3 | 83.3 | – | –
16 | O=C(CCc1ccccc1)NC1CCCN(S(=O)(=O)c2ccc(N3CCC(F)(F)CC3)cc2)C1 (centres unmarked) [#46] | -8.6 | 3.8 | 39.1 | – | –
17 | CC1CCCCN1c1ccc(S(=O)(=O)N2CCCC(NC(=O)CCc3ccccc3)C2)cc1 (centres unmarked) [#47] | -7.4 | 0.1 | 69.7 | – | –
18 | CC(C)N(C(C)C)S(=O)(=O)c1ccc(N2CCCC(NC(=O)CCc3ccccc3)C2)cc1 (centres unmarked) [#49] | 1.4 | 2.6 | 55.9 | – | –
19 | O=C(CCc1ccccc1)NC1CCCN(c2ccc(S(=O)(=O)Nc3ccccc3)cc2)C1 (centres unmarked) [#50] | -1.1 | 0.6 | 59.7 | – | –
20 | O=C(CCc1ccccc1)NC1CCCN(c2ccc(S(=O)(=O)NC3CCCCC3)cc2)C1 (centres unmarked) [#51] | -1 | 3.1 | 46.6 | – | –
21 | O=C(CCc1ccccc1)NC1CCCN(c2ccc(S(=O)(=O)NCc3ccco3)cc2)C1 (centres unmarked) [#52] | 36.9 | 2.2 | 45.8 | – | –
22 | NS(=O)(=O)c1ccc(N2CCCC(NC(=O)CCc3ccccc3)C2)cc1 (centres unmarked) [#53] | -0.5 | 4.6 | 70.9 | – | –
23 | O=C(CCc1ccccc1)NC1CCCN(c2ccc(S(=O)(=O)N3CCCCC3)cc2)C1 (centres unmarked) [#54] | -9.3 | 1.5 | 81.7 | – | –
24 | O=C(CCc1ccccc1)NC1CCCN(c2ccc(S(=O)(=O)N3CCCC3)cc2)C1 (centres unmarked) [#55] | 4.6 | 2.9 | 85.4 | – | –
25 | Cc1nc(N=Nc2ccc(S(=O)(=O)[O-])cc2S(=O)(=O)[O-])c(COP(=O)([O-])[O-])c(C=O)c1O.[Na+].[Na+].[Na+].[Na+] [PPADS, Pyridoxalphosphate-6-azophenyl-2′,4′-disulfonic acid tetrasodium, reference compound] | – | – | – | 0.7 | 29.6
